Experimental data as given in patent US8030304B2, “Thiazole pyrazolopyrimidines CRF1 receptor antagonists” (Eli Lilly and Company, priority 2006, dated 2011).
Residue numbers refer to the chain shown, from its start.

How the values were obtained:
[1] = Bioavailability and pharmacokinetic properties (volume of distribution, plasma clearance)
Text: (§1) Bioavailability and Pharmacokinetic Properties
(§2) The volume of distribution (Vdist) relates the amount of the drug in the body to the concentration of the drug in the blood or plasma. […] The volume of distribution reflects the extent to which the drug is present in the extravascular tissue. A large volume of distribution reflects the tendency of a compound to bind to the tissue components compared with plasma protein binding.
(§3) To test for volume of distribution, Male Sprague Dawley rats (N=3) are administered a single 1 mg/kg intravenous dose of compound. Multiple plasma samples are collected at time points from 0.08 to 24 hours post-dose. The plasma samples are analyzed by LC/MS/MS to determine the plasma concentrations. Plasma pharmacokinetic calculations are performed to determine the pharmacokinetic parameters including Vdist and plasma clearance (Clp).
(§4) Further, the plasma clearance (CLp) is a measure of the rate of removal of the drug from the body. Following an intravenous dose and first-order kinetics, the plasma clearance may be determined using the following equation: CLp=Dose/AUC, where
(§5) AUC is the total area under the curve that describes the concentration of the drug in the plasma as a function of time from zero to infinity.

human CRF2 = target: T1, human CRF2 (Homo sapiens, UniProt Q13324); assay: CRF2 filter binding assay; settings: at a concentration of 50 μM
T1 construct: expressed in transfected cells
T1 sequence (Q13324 1-411): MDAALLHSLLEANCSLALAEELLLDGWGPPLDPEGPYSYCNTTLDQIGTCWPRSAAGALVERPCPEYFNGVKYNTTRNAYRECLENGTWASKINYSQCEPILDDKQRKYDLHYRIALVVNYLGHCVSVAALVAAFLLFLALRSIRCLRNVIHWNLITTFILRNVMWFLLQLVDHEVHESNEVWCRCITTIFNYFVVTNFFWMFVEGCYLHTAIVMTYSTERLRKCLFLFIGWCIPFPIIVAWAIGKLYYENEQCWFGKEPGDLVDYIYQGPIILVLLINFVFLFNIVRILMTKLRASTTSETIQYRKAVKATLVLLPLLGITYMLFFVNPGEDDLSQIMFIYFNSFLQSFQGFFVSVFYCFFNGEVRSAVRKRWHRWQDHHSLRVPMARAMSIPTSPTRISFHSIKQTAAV
Protocol: CRF2 Filter Binding Assay
The limitations of plasmid-based human CRF2 expression, in terms of generating a recombinant cell line with sufficient receptor density to develop a binding assay, are overcome by using a Phoenix retroviral expression system licensed from Stanford. The stable HEK-hCRF2 cell line is used to prepare membranes and binding reactions (200 μL) are set up as follows: 50 μL of ^125I-sauvagine (0.2 nM final concentration), 50 μL compound and 100 μL CRF2 membrane (25 μg/reaction). The reactions are incubated at room temperature for 2 hours and then terminated by filtration through pre-treated FB Millipore glass fiber filter plates (96 well). The plates are washed twice with ice-cold assay buffer (50 mM tris, 12.5 mM NaCl, 1 mM EDTA, 10 mM MgCl2, 0.05% BSA, pH 7.2), air dried over night and counted with 100 μL Microscint 40 in a MicroBeta counter. Non-specific binding (NSB) is determined in the presence of 0.5 μM non-labeled sauvagine. Alternatively, compounds are evaluated using a Scintillation Proximity assay. […] Bound radioactivity is assessed using a Wallac Trilux scintillation counter. Binding is assessed typically using triplicate determinations and the median data points plotted by Graph Pad Prism. […]

human CRF1 = target: T2, human CRF1 (Homo sapiens, UniProt P34998); assay: CRF1 filter binding assay; settings: HEK-hCRF1 membranes, 125I-sauvagine; read-out: Ki (inhibition constant)
T2 construct: expressed in transfected cells
T2 sequence (P34998 24-415): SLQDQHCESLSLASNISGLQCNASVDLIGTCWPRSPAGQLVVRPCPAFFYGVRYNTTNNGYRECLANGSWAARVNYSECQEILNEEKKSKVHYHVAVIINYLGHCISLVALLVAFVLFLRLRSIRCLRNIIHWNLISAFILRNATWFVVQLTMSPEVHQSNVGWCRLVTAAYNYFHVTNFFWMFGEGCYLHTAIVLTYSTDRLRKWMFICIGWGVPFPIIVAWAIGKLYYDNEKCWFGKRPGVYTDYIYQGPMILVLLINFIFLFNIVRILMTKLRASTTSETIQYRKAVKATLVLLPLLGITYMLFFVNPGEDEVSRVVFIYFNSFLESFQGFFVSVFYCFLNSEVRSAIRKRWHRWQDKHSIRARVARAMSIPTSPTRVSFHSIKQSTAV
Protocol: CRF1 Filter Binding Assay
The limitations of plasmid-based human CRF1 expression, in terms of generating a recombinant cell line with sufficient receptor density to develop a binding assay, are overcome by using a Phoenix retroviral expression system licensed from Stanford. The stable HEK-hCRF1 cell line is used to prepare membranes and binding reactions (200 μL) are set up as follows: 50 μL of ^125I-sauvagine (0.2 nM final), 50 μL compound and 100 μL CRF1 membrane (25 μg/reaction). The reactions are incubated at room temperature for 2 h and then terminated by filtration through pre-treated FB Millipore glass fiber filter plates (96 well). The plates are washed twice with ice-cold assay buffer (50 mM tris, 12.5 mM NaCl, 1 mM EDTA, 10 mM MgCl2, 0.05% BSA, pH 7.2), air dried over night and counted with 100 μL Microscint 40 in a MicroBeta counter. Non-specific binding (NSB) is determined in the presence of 0.5 μM non-labeled sauvagine. Triplicate determinations are typically run and the median data points plotted by Graph Pad Prism.

[2] = target: T3, binding of 125I-sauvagine to the cerebellum (Rattus norvegicus, UniProt P35353); assay: In vivo potency assessment using ex vivo binding; settings: oral route
T3 construct: from tissue; host or cells: rat cerebellum
T3 sequence (P35353 24-415): T2 sequence (P34998 24-415) with H6R, S9N, A13T, I16V, M153V, G163A, I209V, Y229H, H356R
Protocol: In Vivo Potency Assessment Using Ex Vivo Binding
To assess in vivo potency, a compound of the present invention is evaluated using ex vivo binding. Using the procedures as provided in D. R. Gehlert et al., EJP 509: 145-153 (2005), a compound is administered to a rat via the oral route.

in vivo = settings: male, Sprague Dawley, rat, iv
Text: as §1, §2, §3, §4, §5

[3] = male, Sprague Dawley, rat, plasma, iv, 1 mg/kg

CCCCN(CC)c1nc(C)nc2c1c(C)cn2-c1c(C)cc(C)cc1C [CP154526]
Vd [1, 3]: 114 L/kg | clearance [1, 3]: 4.98 L/h/kg

CCC(CC)c1cc(C)nc2c(-c3sc(N(C)C)nc3Cl)c(C)nn12 [Example 15, {4-Chloro-5-[7-(1-ethyl-propyl)-2,5-dimethyl-pyrazolo[1,5-a]pyrimidin-3-yl]-thiazol-2-yl}-dimethyl-amine]
inhibition at 50 µM (human CRF2): 11% | Ki (human CRF1): 6.2 nM | inhibition at 10 mg/kg [2]: 65% | clearance (in vivo): 1.42 L/h/kg | Vd (in vivo; 1 mg/kg): 7.2 L/kg

CCCN(CCC)c1cc(C)nc2c(-c3cnc(N(C)C)cc3C)c(C)nn12 [NBI30775]
rat Vdist (volume of distribution) ([1]; single intravenous dose of 1 mg/kg, analyzed separately): 76 L/kg
